From publication PMC11079024, “Identification of a family of species-selective complex I inhibitors as potential anthelmintics” (Nature Communications, 2024)

Test system: L1 wild-type C. elegans
Assay: not given
Conditions: 50 μM compound; […]; hit = relative motility below 0.25 3 hours after removal of KCN
In the case of `c1ccc(CCCCCCCCCCc2nc3ccccc3[nH]2)cc1` [STL442376], the “Screen "Hit"” value is reported as “Y (hits were identified as compounds that reduced relative motility below 0.25 (75% reduction))”.
With `Cc1ccc2nc(C(C)c3ccc(CC(C)C)cc3)[nH]c2c1` (stereo not drawn) [STL482096] the “Screen "Hit"” value was “Y (hits were identified as compounds that reduced relative motility below 0.25 (75% reduction))”.

Same assay, conditions: 50 μM; […]; KCN survival assay; hit = relative motility below 0.25
For `Clc1ccc(SCCCCn2cnc3ccccc32)cc1` [Compound 7925515], the “Screen "Hit"” value was “Y (hits were identified as compounds that reduced relative motility below 0.25 (75% reduction))”.
In the case of `Nc1nc2ccccc2n1Cc1ccc(Br)cc1` [Compound 7313068], the “Screen "Hit"” value is reported as “Y (hits were identified as compounds that reduced relative motility below 0.25 (75% reduction))”.

Same assay, conditions: Dose 0.2 µM; mean of at least three biological replicates
With `Clc1ccc(SCCCCn2cnc3ccccc32)cc1` [Compound 7925515] the “C. elegans KCN Survival” value was 0.966.

Same assay, conditions: Dose 0.39 µM
With `Clc1ccc(SCCCCn2cnc3ccccc32)cc1` [Compound 7925515] the “C. elegans KCN Survival” value was 1.005.

Same assay, conditions: Dose 1.56 µM
For `Clc1ccc(SCCCCn2cnc3ccccc32)cc1` [Compound 7925515], the “C. elegans KCN Survival” value was 0.967.

Same assay, conditions: Dose 3.13 µM
In the case of `Clc1ccc(SCCCCn2cnc3ccccc32)cc1` [Compound 7925515], the “C. elegans KCN Survival” value is reported as 0.917.

Same assay, conditions: Dose 6.25 µM
With `Clc1ccc(SCCCCn2cnc3ccccc32)cc1` [Compound 7925515] the “C. elegans KCN Survival” value was 0.704.

Same assay, conditions: Dose 12.5 µM
With `Clc1ccc(SCCCCn2cnc3ccccc32)cc1` [Compound 7925515] the “C. elegans KCN Survival” value was 0.109.

Same assay, conditions: Dose 25 µM
For `Clc1ccc(SCCCCn2cnc3ccccc32)cc1` [Compound 7925515], the “C. elegans KCN Survival” value was 0.129.

Same assay, conditions: Dose 50 µM
For `Clc1ccc(SCCCCn2cnc3ccccc32)cc1` [Compound 7925515], the “C. elegans KCN Survival” value was 0.146.

Same assay, conditions: Dose 100 µM
With `Clc1ccc(SCCCCn2cnc3ccccc32)cc1` [Compound 7925515] the “C. elegans KCN Survival” value was 0.182.

Molecular target: C. elegans (N2) complex I (NADH:ubiquinone oxidoreductase) (Caenorhabditis elegans, UniProt P24887+Q93873+Q94360)
Sequence (Q94360 17-199): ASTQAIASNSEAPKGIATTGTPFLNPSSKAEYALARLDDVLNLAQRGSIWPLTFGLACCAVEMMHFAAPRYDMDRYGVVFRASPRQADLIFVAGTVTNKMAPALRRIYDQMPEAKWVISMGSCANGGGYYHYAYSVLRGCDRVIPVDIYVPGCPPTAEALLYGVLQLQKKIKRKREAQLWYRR
Sequence (P24887 whole entry): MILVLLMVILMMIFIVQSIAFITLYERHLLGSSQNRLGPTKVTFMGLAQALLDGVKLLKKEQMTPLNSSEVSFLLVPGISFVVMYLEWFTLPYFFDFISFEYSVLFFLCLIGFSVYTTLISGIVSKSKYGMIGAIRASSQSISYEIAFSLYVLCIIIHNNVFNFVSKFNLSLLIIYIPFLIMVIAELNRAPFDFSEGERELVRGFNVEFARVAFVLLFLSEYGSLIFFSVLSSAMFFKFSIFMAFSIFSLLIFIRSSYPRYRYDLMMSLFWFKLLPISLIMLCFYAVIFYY
Sequence (Q93873 31-482): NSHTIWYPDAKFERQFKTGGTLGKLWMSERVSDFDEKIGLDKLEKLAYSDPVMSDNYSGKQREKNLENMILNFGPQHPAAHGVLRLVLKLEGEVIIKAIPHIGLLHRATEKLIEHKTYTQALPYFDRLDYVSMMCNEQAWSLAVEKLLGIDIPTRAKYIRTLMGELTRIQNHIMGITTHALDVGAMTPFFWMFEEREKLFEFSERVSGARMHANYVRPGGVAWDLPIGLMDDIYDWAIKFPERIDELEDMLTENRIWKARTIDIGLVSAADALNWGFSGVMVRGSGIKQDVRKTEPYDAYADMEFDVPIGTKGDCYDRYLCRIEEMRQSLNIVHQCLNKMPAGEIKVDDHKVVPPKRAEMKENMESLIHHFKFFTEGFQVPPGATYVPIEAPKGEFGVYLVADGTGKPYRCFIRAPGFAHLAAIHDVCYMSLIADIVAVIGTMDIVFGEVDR
Assay: biochemical
Type: biochemical
Conditions: Dose 0.0001 µM; read-out: C. elegans mitochondrial complex I activity
In short: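 Activity expressed as percent of solvent control. Complex I rate came from DCIP reduction at 600 nm (initial linear slope, 15 min) with NADH and decylubiquinone as substrates, plus antimycin A and KCN, in pH 7.5 KPi/BSA buffer. Isolated, thrice freeze-thawed mitochondria used at 0.2 mg/mL.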
`Clc1ccc(SCCCCn2cnc3ccccc32)cc1` [Compound 7925515] gave an activity at 0.0001 µM of 90.8%.

Same assay, conditions: Dose 0.0005 µM; read-out: C. elegans mitochondrial complex I activity
Work on `Clc1ccc(SCCCCn2cnc3ccccc32)cc1` [Compound 7925515] yielded an activity at 0.0005 µM of 89.5%.

Same assay, conditions: Dose 0.001 µM; read-out: C. elegans mitochondrial complex I activity
`Clc1ccc(SCCCCn2cnc3ccccc32)cc1` [Compound 7925515] gave an activity at 0.001 µM of 93.5%.

Same assay, conditions: Dose 0.0025 µM; read-out: C. elegans mitochondrial complex I activity
With `Clc1ccc(SCCCCn2cnc3ccccc32)cc1` [Compound 7925515] the activity at 0.0025 µM was 93.3%.

Same assay, conditions: Dose 0.005 µM; read-out: C. elegans mitochondrial complex I activity
With `Clc1ccc(SCCCCn2cnc3ccccc32)cc1` [Compound 7925515] the activity at 0.005 µM was 91%.

Same assay, conditions: Dose 0.013 µM; read-out: C. elegans mitochondrial complex I activity
`Clc1ccc(SCCCCn2cnc3ccccc32)cc1` [Compound 7925515] gave an activity at 0.013 µM of 90.5%.

Same assay, conditions: Dose 0.025 µM; read-out: C. elegans mitochondrial complex I activity
Work on `Clc1ccc(SCCCCn2cnc3ccccc32)cc1` [Compound 7925515] yielded an activity at 0.025 µM of 86.2%.

Same assay, conditions: Dose 0.063 µM; read-out: C. elegans mitochondrial complex I activity
Work on `Clc1ccc(SCCCCn2cnc3ccccc32)cc1` [Compound 7925515] yielded an activity at 0.063 µM of 83.9%.

Same assay, conditions: Dose 0.125 µM; read-out: C. elegans mitochondrial complex I activity
Compound `Clc1ccc(SCCCCn2cnc3ccccc32)cc1` [Compound 7925515] has an activity at 0.125 µM of 76.1%.

Same assay, conditions: Dose 0.313 µM; read-out: C. elegans mitochondrial complex I activity
Work on `Clc1ccc(SCCCCn2cnc3ccccc32)cc1` [Compound 7925515] yielded an activity at 0.313 µM of 69.1%.

Same assay, conditions: Dose 0.625 µM; read-out: C. elegans mitochondrial complex I activity
In the case of `Clc1ccc(SCCCCn2cnc3ccccc32)cc1` [Compound 7925515], the activity at 0.625 µM is reported as 60.1%.

Same assay, conditions: Dose 1.5 µM; read-out: C. elegans mitochondrial complex I activity
Work on `Clc1ccc(SCCCCn2cnc3ccccc32)cc1` [Compound 7925515] yielded an activity at 1.5 µM of 39.1%.

Same assay, conditions: Dose 3 µM; read-out: C. elegans mitochondrial complex I activity
Compound `Clc1ccc(SCCCCn2cnc3ccccc32)cc1` [Compound 7925515] has an activity at 3 µM of 22%.

Same assay, conditions: Dose 15 µM; read-out: C. elegans mitochondrial complex I activity
With `Clc1ccc(SCCCCn2cnc3ccccc32)cc1` [Compound 7925515] the activity at 15 µM was 10.5%.

Same assay, conditions: Dose 37.5 µM; read-out: C. elegans mitochondrial complex I activity
`Clc1ccc(SCCCCn2cnc3ccccc32)cc1` [Compound 7925515] gave an activity at 37.5 µM of 7.84%.

Same assay, conditions: Dose 75 µM; read-out: C. elegans mitochondrial complex I activity
Work on `Clc1ccc(SCCCCn2cnc3ccccc32)cc1` [Compound 7925515] yielded an activity at 75 µM of 5.86%.

Same assay, conditions: in vitro complex I dose response on C. elegans mitochondria; average of at least two biological replicates; fit in R (DRC); read-out: IC50 C. elegans complex I
`Clc1ccc(SCCCCn2cnc3ccccc32)cc1` [Compound 7925515] gave an IC50 of 950 nM.
With `Nc1nc2ccccc2n1Cc1ccc(Br)cc1` [Compound 7313068] the IC50 was 340 nM.
Compound `c1ccc(CCCCCCCCCCc2nc3ccccc3[nH]2)cc1` [STL442376] has an IC50 of 2330 nM.
Compound `Cc1ccc2nc(C(C)c3ccc(CC(C)C)cc3)[nH]c2c1` (stereo not drawn) [STL482096] has an IC50 of 910 nM.

Same assay, conditions: log10 of IC50 in µM; C. elegans mitochondria
With `Clc1ccc(SCCCCn2cnc3ccccc32)cc1` [Compound 7925515] the “Log IC50 C. elegans complex I” value was -0.0223 µM.
In the case of `Nc1nc2ccccc2n1Cc1ccc(Br)cc1` [Compound 7313068], the “Log IC50 C. elegans complex I” value is reported as -0.47 µM.
In the case of `c1ccc(CCCCCCCCCCc2nc3ccccc3[nH]2)cc1` [STL442376], the “Log IC50 C. elegans complex I” value is reported as 0.37 µM.
For `Cc1ccc2nc(C(C)c3ccc(CC(C)C)cc3)[nH]c2c1` (stereo not drawn) [STL482096], the “Log IC50 C. elegans complex I” value was -0.04 µM.

Same assay, conditions: wild-type (N2) mitochondria; read-out: C. elegans Complex I IC50
With `Clc1ccc(SCCCCn2cnc3ccccc32)cc1` [Compound 7925515] the IC50 was 950 nM.
With `Nc1nc2ccccc2n1Cc1ccc(Br)cc1` [Compound 7313068] the IC50 was 340 nM.
Work on `Cc1ccc2nc(C(C)c3ccc(CC(C)C)cc3)[nH]c2c1` (stereo not drawn) [STL482096] yielded an IC50 of 910 nM.

Same assay, conditions: wild-type C. elegans mitochondria; estimated from fitted dose-response curves; read-out: C. elegans Complex I IC50
`Clc1ccc(SCCCCn2cnc3ccccc32)cc1` [Compound 7925515] showed an IC50 of 950 nM.
With `Nc1nc2ccccc2n1Cc1ccc(Br)cc1` [Compound 7313068] the IC50 was 340 nM.
`c1ccc(CCCCCCCCCCc2nc3ccccc3[nH]2)cc1` [STL442376] gave an IC50 of 2330 nM.
`Cc1ccc2nc(C(C)c3ccc(CC(C)C)cc3)[nH]c2c1` (stereo not drawn) [STL482096] gave an IC50 of 910 nM.

Test system: not listed separately
Assay: in vitro
Conditions: human
In the case of `Cc1ccc2nc(C(C)c3ccc(CC(C)C)cc3)[nH]c2c1` (stereo not drawn) [STL482096], the CC50 at 2 days is reported as < 12500 nM.

Same assay, conditions: human, HEK293 Cell Viability Assay LC50, HEK293 cells; estimated from fitted dose-response curves; mean of at least two biological replicates
Compound `Clc1ccc(SCCCCn2cnc3ccccc32)cc1` [Compound 7925515] has a CC50 at 2 days of 57300 nM.
For `Nc1nc2ccccc2n1Cc1ccc(Br)cc1` [Compound 7313068], the CC50 at 2 days was 41700 nM.
With `c1ccc(CCCCCCCCCCc2nc3ccccc3[nH]2)cc1` [STL442376] the CC50 at 2 days was < 6250 nM.

Same assay, conditions: human, HEK293 cells (Flp-In-293), HEK293 viability, Dose 3.13 µM
`Clc1ccc(SCCCCn2cnc3ccccc32)cc1` [Compound 7925515] gave a viability at 2 days, 3.13 µM of 83.6%.

Same assay, conditions: human, HEK293 cells (Flp-In-293), HEK293 viability, Dose 6.25 µM
Work on `Clc1ccc(SCCCCn2cnc3ccccc32)cc1` [Compound 7925515] yielded a viability at 2 days, 6.25 µM of 92.4%.

Same assay, conditions: human, HEK293 cells (Flp-In-293), HEK293 viability, Dose 12.5 µM
`Clc1ccc(SCCCCn2cnc3ccccc32)cc1` [Compound 7925515] gave a viability at 2 days, 12.5 µM of 94.2%.

Same assay, conditions: human, HEK293 cells (Flp-In-293), HEK293 viability, Dose 25 µM
Compound `Clc1ccc(SCCCCn2cnc3ccccc32)cc1` [Compound 7925515] has a viability at 2 days, 25 µM of 96.8%.

Same assay, conditions: human, HEK293 cells (Flp-In-293), HEK293 viability, Dose 50 µM
For `Clc1ccc(SCCCCn2cnc3ccccc32)cc1` [Compound 7925515], the viability at 2 days, 50 µM was 55.5%.

Same assay, conditions: human, HEK293 cells (Flp-In-293), HEK293 viability, Dose 100 µM
In the case of `Clc1ccc(SCCCCn2cnc3ccccc32)cc1` [Compound 7925515], the viability at 2 days, 100 µM is reported as 12.7%.
